Target: T1, Arachidonate 5-lipoxygenase-activating protein (Homo sapiens, UniProt P20292)
T1 sequence (P20292 whole entry): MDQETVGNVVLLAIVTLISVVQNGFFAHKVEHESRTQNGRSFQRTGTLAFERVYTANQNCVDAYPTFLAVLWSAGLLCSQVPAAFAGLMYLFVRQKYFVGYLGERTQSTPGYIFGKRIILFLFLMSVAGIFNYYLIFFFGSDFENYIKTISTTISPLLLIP
Assay: Binding Assay: Compounds area assessed for the ability to bind to FLAP in a binding assay that measures compound-specific displacement of an iodinated (125I) FLAP inhibitor via a scintillaion proximity assay format (adapted from S. Charleson et. al., Mol. Pharmacol., 1992,41 873-879).

Row | SMILES | IC50 [nM]
1 | COCCn1cc(-c2nc(C3(c4ccc(-c5cnc(N)nc5)nc4)CCC3)no2)cn1 | 17
2 | COC(=O)[C@@H]1CN(c2ccc(-c3nc(C4(c5ccc(-c6cnc(N)nc6)nc5)CCC4)no3)cn2)CCN1 | 3.7
3 | COCCNc1cnc(-c2nc(C3(c4ccc(-c5cnc(N)nc5)nc4)CCC3)no2)cn1 | 3.2
4 | CCNc1cnc(-c2nc(C3(c4ccc(-c5cnc(N)nc5)nc4)CCC3)no2)cn1 | 2.4
5 | CN1CCN(c2cnc(-c3nc(C4(c5ccc(-c6cnc(N)nc6)nc5)CCC4)no3)cn2)CC1 | 1.8
6 | Nc1ncc(-c2ccc(C3(c4noc(-c5ccc6[nH]ncc6c5)n4)CCC3)cn2)cn1 | 4
7 | CC(C)(C)NC(=O)Cn1cc(-c2nc(C3(c4ccc(-c5cnc(N)nc5)nc4)CCC3)no2)cn1 | 14
8 | CCNC(=O)Cn1cc(-c2nc(C3(c4ccc(-c5cnc(N)nc5)nc4)CCC3)no2)cn1 | 100
9 | N#CCn1cc(-c2nc(C3(c4ccc(-c5cnc(N)cn5)nc4)CCC3)no2)cn1 | 48

Reference: ChEMBL document CHEMBL3639124, “Oxadiazole inhibitors of leukotriene production” (2013)
